Experimental findings from patent US8497278B2, “Imidazo[1,2-a]pyridine compounds” (priority 2008, dated 2013) are described below.

Experiment [1] concerns the target T1, α2 subtype containing GABA-A receptors (Homo sapiens, UniProt P18507+P47869).
T1 construct: expressed in transfected cells; host or cells: Xenopus laevis oocytes, cRNA injected
Description: Two-electrode voltage clamp electrophysiology in Xenopus oocytes, potentiation of GABA EC20 response, α2. It counts as cell-based. The following applies: 100 nM compound; for activation at 0.1 µM: read-out: Percentage of potentiation alpha2. In short, it runs like this: (§1)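 Stage 5–6 Xenopus oocytes were injected with cRNA for human α subunit plus β3 and γ2L, then voltage-clamped at −80 mV under ND96 perfusion. Each received 60 μM GABA (EC20), a 1 μM chlordiazepoxide control, and then a single 100 nM compound application.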

For experiment [2], the target named is T2, α3 subtype containing GABA-A receptors (Homo sapiens, UniProt P18507+P34903).
T2 construct: expressed in transfected cells; host or cells: Xenopus laevis oocytes, cRNA injected
Description: Two-electrode voltage clamp electrophysiology in Xenopus oocytes, potentiation of GABA EC20 response, α3. The conditions noted are these: 100 nM compound; for activation at 0.1 µM: read-out: Percentage of potentiation alpha3. It counts as cell-based. The procedure:
(§2) Electrophysiology protocol: Oocytes were prepared from adult female Xenopus laevis frogs. cRNA encoding human α1, α2, α3, α5, β3 and γ2L GABAA receptor subunits was injected into the cytoplasm of stage 5 or 6 oocytes using the Robocyte Robot (Multi Channel Systems, Reutlingen, Germany). Two-electrode voltage clamp recordings were made in 96-well plates using the Robocyte Robot. Oocytes were impaled using recording heads with two glass electrodes containing 1.5 M potassium acetate and 0.5 M KCl and held at a membrane potential of −80 mV. Oocytes were continually perfused with a ND96 solution (96 mM NaCl, 2 mM KCl, 0.1 mM CaCl2, and 5 mM HEPES, pH 7.5) using a Gilson 222 XL Liquid Handler and Gilson Minipuls 3 Peristaltic Pump (Gilson Medical Electronics, Middleton, Wis., USA). The protocol consisted of three 20-s applications of GABA that gave a 20% of the maximum response (EC20: 60 μM) to allow for headroom to determine a baseline GABA response. To assess the potentiation, oocytes were first exposed to a single 1 μM chlordiazepoxide (CDP) as a potentiation standard. Oocytes with insufficient expression levels (currents below threshold) or insufficient γ2L subunit incorporation (judged by rapid desensitization upon GABA application, or by insufficient potentiation by CDP) were not included in analysis. Following this control application, a given oocyte was exposed to test compounds at 100 nM concentrations. Only one concentration of one compound was tested per oocyte. […] One skilled in the art will recognize that subtypes contribute to the effects of GABA-A modulators. Such that compounds favoring different subtypes can have different therapeutic effects. The magnitude of modulation, for example, partial modulators can influence the effects in vivo. “++” indicates a greater modulation that “+” so that at any given subtype “++” inducates a greater amount of modulation for that subtype. In some embodiments, modulation favoring alpha 1 relative to alpha2 and/or alpha 3 can have sedative hypnotic effects. In other embodiments, compounds with reduced selectivity of alpha 1 can express anxiolytic effects with less sedation. Compounds with selectivity for alpha 5 can have memory/cognition enhancing effects.

In experiment [3] the target is T3, α5 subtype containing GABA-A receptors (Homo sapiens, UniProt P18507+P31644).
T3 construct: expressed in transfected cells; host or cells: Xenopus laevis oocytes, cRNA injected
The experiment in a line: Two-electrode voltage clamp electrophysiology in Xenopus oocytes, potentiation of GABA EC20 response, α5. It counts as cell-based. The following applies: 100 nM compound; for activation at 0.1 µM: read-out: Percentage of potentiation alpha5. The method, then:
as §2

The target of experiment [4] is T4, α1 subtype containing GABA-A receptors (Homo sapiens, UniProt P14867+P18507).
T4 construct: expressed in transfected cells; host or cells: Xenopus laevis oocytes, cRNA injected
Description: Two-electrode voltage clamp electrophysiology in Xenopus oocytes, potentiation of GABA EC20 response, α1. It counts as cell-based. The conditions noted are these: 100 nM compound; for activation at 0.1 µM: read-out: Percentage of potentiation alpha1. In short, it runs like this: as §1

The subject of experiment [5] is central benzodiazepine receptors. Description: Central benzodiazepine receptor binding (test of Speth et al.). The following applies: 1000 nM of the compound. In short, it runs like this: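 Values are percent inhibition of central benzodiazepine receptor binding at 1000 nM compound (initial single-point screen at 1.0E-09, 1.0E-07 and 1.0E-05 M). Speth et al. binding test; nonspecific binding defined with excess unlabelled ligand and subtracted from total.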

T4 sequence (P14867 28-456): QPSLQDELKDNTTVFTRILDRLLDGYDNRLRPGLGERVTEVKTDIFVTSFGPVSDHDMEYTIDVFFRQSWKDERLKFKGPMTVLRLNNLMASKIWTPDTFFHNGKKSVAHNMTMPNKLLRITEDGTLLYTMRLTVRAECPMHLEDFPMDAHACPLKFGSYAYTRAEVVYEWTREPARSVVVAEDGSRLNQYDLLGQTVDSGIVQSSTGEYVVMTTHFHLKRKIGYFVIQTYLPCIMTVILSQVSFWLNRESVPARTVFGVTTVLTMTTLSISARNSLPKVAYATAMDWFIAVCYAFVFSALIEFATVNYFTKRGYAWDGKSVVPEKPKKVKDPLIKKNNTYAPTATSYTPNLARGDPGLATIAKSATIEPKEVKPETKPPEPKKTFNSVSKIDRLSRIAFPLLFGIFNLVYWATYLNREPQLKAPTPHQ
T4 sequence (P28472 26-473 partner): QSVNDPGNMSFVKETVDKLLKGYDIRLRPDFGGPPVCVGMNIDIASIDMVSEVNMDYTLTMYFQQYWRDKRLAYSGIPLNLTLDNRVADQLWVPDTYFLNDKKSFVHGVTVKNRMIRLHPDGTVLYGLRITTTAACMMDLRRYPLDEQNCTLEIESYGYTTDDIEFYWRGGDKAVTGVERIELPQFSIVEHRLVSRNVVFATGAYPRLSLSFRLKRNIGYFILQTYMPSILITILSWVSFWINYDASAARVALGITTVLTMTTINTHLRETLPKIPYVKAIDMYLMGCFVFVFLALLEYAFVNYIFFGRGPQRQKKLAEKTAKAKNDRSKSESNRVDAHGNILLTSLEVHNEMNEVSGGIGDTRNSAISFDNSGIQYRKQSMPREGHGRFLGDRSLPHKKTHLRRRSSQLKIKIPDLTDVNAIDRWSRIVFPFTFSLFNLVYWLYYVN
T4 sequence (P18507 40-475): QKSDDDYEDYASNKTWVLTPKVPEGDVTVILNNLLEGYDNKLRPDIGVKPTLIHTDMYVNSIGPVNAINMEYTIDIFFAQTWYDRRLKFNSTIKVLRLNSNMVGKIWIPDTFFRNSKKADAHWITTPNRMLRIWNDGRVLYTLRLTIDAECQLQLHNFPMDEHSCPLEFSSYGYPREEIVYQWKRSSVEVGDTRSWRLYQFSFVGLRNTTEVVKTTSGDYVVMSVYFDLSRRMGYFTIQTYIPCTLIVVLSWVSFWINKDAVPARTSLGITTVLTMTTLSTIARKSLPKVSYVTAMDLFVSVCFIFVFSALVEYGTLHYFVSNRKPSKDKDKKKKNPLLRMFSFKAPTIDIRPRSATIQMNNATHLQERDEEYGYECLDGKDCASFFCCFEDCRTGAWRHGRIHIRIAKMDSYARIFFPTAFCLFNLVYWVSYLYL
T3 sequence (P31644 32-462): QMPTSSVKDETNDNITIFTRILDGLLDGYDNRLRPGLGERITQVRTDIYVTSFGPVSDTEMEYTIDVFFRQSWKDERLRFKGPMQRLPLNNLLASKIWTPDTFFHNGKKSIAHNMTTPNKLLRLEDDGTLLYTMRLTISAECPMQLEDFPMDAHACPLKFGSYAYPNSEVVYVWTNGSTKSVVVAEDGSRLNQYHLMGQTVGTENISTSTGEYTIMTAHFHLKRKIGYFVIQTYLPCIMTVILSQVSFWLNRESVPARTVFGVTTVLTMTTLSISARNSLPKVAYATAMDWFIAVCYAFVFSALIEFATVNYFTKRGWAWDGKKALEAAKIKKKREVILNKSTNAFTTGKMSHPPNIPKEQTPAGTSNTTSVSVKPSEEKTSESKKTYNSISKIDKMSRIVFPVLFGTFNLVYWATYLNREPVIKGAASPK
T3 sequence (P28472 26-473 partner): as the sequence (P28472 26-473 partner) above
T3 sequence (P18507 40-475): as the sequence (P18507 40-475) above
T1 sequence (P47869 29-451): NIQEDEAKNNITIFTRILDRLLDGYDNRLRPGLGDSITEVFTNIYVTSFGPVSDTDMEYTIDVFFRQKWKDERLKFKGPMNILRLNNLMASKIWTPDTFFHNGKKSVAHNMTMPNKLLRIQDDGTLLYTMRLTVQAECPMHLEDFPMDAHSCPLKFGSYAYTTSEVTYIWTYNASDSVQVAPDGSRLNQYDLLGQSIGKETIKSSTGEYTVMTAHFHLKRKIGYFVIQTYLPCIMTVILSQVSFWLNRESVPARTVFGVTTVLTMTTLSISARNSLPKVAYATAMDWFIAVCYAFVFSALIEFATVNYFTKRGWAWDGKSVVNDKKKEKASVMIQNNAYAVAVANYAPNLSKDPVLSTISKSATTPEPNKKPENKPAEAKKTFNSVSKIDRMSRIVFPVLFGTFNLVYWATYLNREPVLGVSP
T1 sequence (P28472 26-473 partner): as the sequence (P28472 26-473 partner) above
T1 sequence (P18507 40-475): as the sequence (P18507 40-475) above
T2 sequence (P34903 29-492): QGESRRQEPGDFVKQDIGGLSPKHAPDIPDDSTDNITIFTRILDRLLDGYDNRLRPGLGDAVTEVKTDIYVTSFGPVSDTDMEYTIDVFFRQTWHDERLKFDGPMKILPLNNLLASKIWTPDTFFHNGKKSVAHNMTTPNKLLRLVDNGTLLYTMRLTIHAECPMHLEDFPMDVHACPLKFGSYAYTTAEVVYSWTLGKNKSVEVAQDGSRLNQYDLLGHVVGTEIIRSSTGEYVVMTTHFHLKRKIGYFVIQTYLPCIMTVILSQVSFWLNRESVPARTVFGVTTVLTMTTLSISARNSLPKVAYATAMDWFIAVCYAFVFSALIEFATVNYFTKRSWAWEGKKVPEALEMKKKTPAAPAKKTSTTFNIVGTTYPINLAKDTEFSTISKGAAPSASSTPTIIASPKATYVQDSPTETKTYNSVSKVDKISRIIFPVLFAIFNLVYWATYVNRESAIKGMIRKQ
T2 sequence (P28472 26-473 partner): as the sequence (P28472 26-473 partner) above
T2 sequence (P18507 40-475): as the sequence (P18507 40-475) above

As for `CNC(=O)c1nc(Cc2c(-c3ccc(F)cc3)nc3ccc(F)cn23)no1` [Compound 220, 3-((2-(4-fluorophenyl)-6-fluoroimidazo[1,2-a]pyridin-3-yl)methyl)-1,2,4-oxadiazole-5-N-methyl-carboxamide], in experiment [1], the “Percentage of potentiation alpha2” value is “+ (percentage of potentiation is greater than or equal to 10% but less than 50% in the presence of 100 nM of the compound)”. Also, in experiment [2], the “Percentage of potentiation alpha3” value was 0 (percentage of potentiation is between about 10% to about −10%). In addition, in experiment [3], the “Percentage of potentiation alpha5” value is 0 (percentage of potentiation is between about 10% to about −10%). Moreover, the “Percentage of potentiation alpha1” value in experiment [4] is 0 (percentage of potentiation is between about 10% to about −10%).
Regarding `CNc1ccn(Cc2c(-c3ccc(Cl)cc3)nc3ccccn23)c(=O)n1` [Compound 133, 1-((2-(4-chlorophenyl)imidazo[1,2-a]pyridin-3-yl)methyl)-4-(methylamino)pyrimidin-2(1H)-one], the activation at 0.1 µM in experiment [1] was at least 50%; in experiment [2], -10 to 10%; in experiment [3] it was -10 to 10%; in experiment [4], 10 to 50%. In addition, in experiment [5], the “% Inhibition at 1000 nM for CBZD” value is on record as “++ (percentage of inhibition of central BZD site binding is greater than 80% in the presence of 1000 nM of the compound)”.
In the case of `Cc1ccc(-c2nc3ccc(C)cn3c2CNc2ncccn2)cc1` [Compound 139, N-((6-methyl-2-p-tolylH-imidazo[1,2-a]pyridin-3-yl)methyl)pyrimidin-2-amine], the activation at 0.1 µM in experiment [1] was 10 to 50%; in experiment [2] it was -10 to 10%; in experiment [3], -10 to 10%; in experiment [4] it was 10 to 50%. Moreover, the “% Inhibition at 1000 nM for CBZD” value in experiment [5] is recorded as “++ (percentage of inhibition of central BZD site binding is greater than 80% in the presence of 1000 nM of the compound)”.
In the case of `CC(C)OC(=O)c1ncnn1Cc1c(-c2ccc(Cl)cc2)nc2ccc(Cl)cn12` [Compound 23, 2-[6-Chloro-2-(4-chloro-phenyl)-imidazo[1,2-a]pyridin-3-ylmethyl]-2H-[1,2,4]triazole-3-carboxylic acid isopropyl ester], the activation at 0.1 µM in experiment [1] is 10 to 50%; in experiment [2], 10 to 50%; in experiment [3], -10 to 10%; in experiment [4], 10 to 50%. In addition, the “% Inhibition at 1000 nM for CBZD” value in experiment [5] is recorded as “++ (percentage of inhibition of central BZD site binding is greater than 80% in the presence of 1000 nM of the compound)”.
For the compound `Cc1nnc(Cc2c(-c3ccccc3)nc3ccc(Cl)cn23)o1` [Compound 205, 2-((6-chloro-2-phenylimidazo[1,2-a]pyridin-3-yl)methyl)-5-methyl-1,3,4-oxadiazole], the activation at 0.1 µM in experiment [1], in experiment [2], in experiment [3] and in experiment [4] was -10 to 10% throughout. Further, the “% Inhibition at 1000 nM for CBZD” value in experiment [5] is listed as “++ (percentage of inhibition of central BZD site binding is greater than 80% in the presence of 1000 nM of the compound)”.
On to `Clc1ccc(-c2nc3ccccn3c2Cn2nccn2)cc1` [Compound 39, 2-(4-Chloro-phenyl)-3-[1,2,3]triazol-2-ylmethyl-imidazo[1,2-a]pyridine], for which the activation at 0.1 µM in experiment [1] is 10 to 50%; in experiment [2] it was 10 to 50%; in experiment [3] it was -10 to 10%; in experiment [4] it was 10 to 50%. The “% Inhibition at 1000 nM for CBZD” value in experiment [5] was “++ (percentage of inhibition of central BZD site binding is greater than 80% in the presence of 1000 nM of the compound)”.
Turning to `NNC(=O)c1nc(Cc2c(-c3ccc(Cl)cc3)nc3ccc(F)cn23)no1` [Compound 216, 3-((2-(4-chlorophenyl)-6-fluoroimidazo[1,2-a]pyridin-3-yl)methyl)-1,2,4-oxadiazole-5-carbohydrazide], the activation at 0.1 µM is at least 50% in experiment [1], 10 to 50% in experiment [2], -10 to 10% in experiment [3] and 10 to 50% in experiment [4].
Turning to `Clc1ccc(-c2nc3ccccn3c2Cc2nnc(-c3ccccn3)[nH]2)cc1` [Compound 230, 2-(4-chlorophenyl)-3-((5-(pyridin-2-yl)-4H-1,2,4-triazol-3-yl)methyl)imidazo[1,2-a]pyridine], the activation at 0.1 µM in experiment [1], in experiment [2], in experiment [3] and in experiment [4] was 10 to 50% each time. In addition, in experiment [5], the “% Inhibition at 1000 nM for CBZD” value was “++ (percentage of inhibition of central BZD site binding is greater than 80% in the presence of 1000 nM of the compound)”.
With `O=c1n(Cc2c(-c3ccc(Cl)cc3)nc3ccccn23)nc2ccccn12` [Compound 119, 2-((2-(4-chlorophenyl)imidazo[1,2-a]pyridin-3-yl)methyl)-[1,2,4]triazolo[4,3-a]pyridin-3(2H)-one], the activation at 0.1 µM in experiment [1] was 10 to 50%; in experiment [2] it was -10 to 10%; in experiment [3] it was -10 to 10%; in experiment [4] it was -10 to 10%. Further, the “% Inhibition at 1000 nM for CBZD” value in experiment [5] is “++ (percentage of inhibition of central BZD site binding is greater than 80% in the presence of 1000 nM of the compound)”.
For `O=c1cc(Cl)n(Cc2c(-c3ccc(Cl)cc3)nc3ccccn23)c(=O)[nH]1` [Compound 128, 6-chloro-1-((2-(4-chlorophenyl)imidazo[1,2-a]pyridin-3-yl)methyl)pyrimidine-2,4(1H,3H)-dione], the activation at 0.1 µM in experiment [1] is 10 to 50%; in experiment [2] it was -10 to 10%; in experiment [3], 10 to 50%; in experiment [4] it was -10 to 10%. Further, in experiment [5], the “% Inhibition at 1000 nM for CBZD” value is “++ (percentage of inhibition of central BZD site binding is greater than 80% in the presence of 1000 nM of the compound)”.
In the case of `CN(C)CCNC1=CC(=O)N(Cc2c(-c3ccc(Br)cc3)nc3ccccn23)C1` [Compound 242, 1-((2-(4-bromophenyl)imidazo[1,2-a]pyridin-3-yl)methyl)-4-(2-(dimethylamino)ethylamino)-1H-pyrrol-2(5H)-one], the activation at 0.1 µM was 10 to 50% in experiment [1], -10 to 10% in experiment [2] and 10 to 50% in experiment [4]. The “% Inhibition at 1000 nM for CBZD” value in experiment [5] is listed as “++ (percentage of inhibition of central BZD site binding is greater than 80% in the presence of 1000 nM of the compound)”.
Regarding `COC1=CC(=O)N(Cc2c(-c3ccc(Cl)cc3)nc3ccc(Cl)cn23)C1` [Compound 114, 1-((6-chloro-2-(4-chlorophenyl)H-imidazo[1,2-a]pyridin-3-yl)methyl)-4-methoxy-1H-pyrrol-2(5H)-one], in experiment [1], the “Percentage of potentiation alpha2” value was “+ (percentage of potentiation is greater than or equal to 10% but less than 50% in the presence of 100 nM of the compound)”. Moreover, in experiment [2], the “Percentage of potentiation alpha3” value is listed as “+ (percentage of potentiation is greater than or equal to 10% but less than 50% in the presence of 100 nM of the compound)”. Also, the “Percentage of potentiation alpha5” value in experiment [3] is reported as 0 (percentage of potentiation is between about 10% to about −10%). Further, in experiment [4], the “Percentage of potentiation alpha1” value is reported as “++ (percentage of potentiation is greater than or equal to 50% in the presence of 100 nM of the compound)”.
